Consider 26 compounds from patent publication US7312188B2, “Peptide derivatives having β-secretase inhibitory activity” (priority 2003, dated 2007).

SMILES strings stand for the structures. Numbered stars: 1 amine (or outer) side, 2 acyl side, 3 side chain; on linkers, the order of the positions; unused ones are H or OH. Square brackets hold non-standard residues; d marks the D form. Peptide text beside a SMILES is read from it. * marks the point of attachment. ξ: configuration not given here. β3hPhe(2R-OH) = O=C([C@H](O)[C@H](Cc1ccccc1)N[*:1])[*:2]; X3 = CC(C)C[C@H](N[*:1])[C@@H](O)C(=O)[*:2]; Ala(4-thiazolyl) = N[C@@H](Cc1cscn1)C(=O)O; Thz(5,5-Me2) = CC1(C)SCN[C@@H]1C(=O)O; Oxalyl = O=C(C(=O)[*:2])[*:1]; 4Amb = NCc1ccc(C(=O)O)cc1; X1 = O=C(c1ccc(O)c(O)c1)*; 3Abz = Nc1cccc(C(=O)O)c1; 4Abz = Nc1ccc(C(=O)O)cc1; Orn = NCCC[C@H](N)C(=O)O; ξE = NC(CCC(=O)O)C(=O)O; Dap = NC[C@H](N)C(=O)O; X4 = CCOC(=O)C(=O)*

T1 sequence (P56817 22-460 limits assumed): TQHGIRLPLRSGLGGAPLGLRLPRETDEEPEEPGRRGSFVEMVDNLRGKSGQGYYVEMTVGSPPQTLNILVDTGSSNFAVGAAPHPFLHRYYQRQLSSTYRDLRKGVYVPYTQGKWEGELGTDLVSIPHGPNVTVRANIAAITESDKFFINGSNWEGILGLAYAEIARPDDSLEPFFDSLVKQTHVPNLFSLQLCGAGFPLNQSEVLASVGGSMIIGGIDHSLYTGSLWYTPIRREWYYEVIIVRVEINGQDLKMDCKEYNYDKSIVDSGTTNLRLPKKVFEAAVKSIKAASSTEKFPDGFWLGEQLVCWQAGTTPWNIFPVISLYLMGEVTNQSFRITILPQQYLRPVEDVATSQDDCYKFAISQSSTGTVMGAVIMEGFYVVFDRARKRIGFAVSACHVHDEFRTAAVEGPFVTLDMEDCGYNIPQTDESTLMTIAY

This assay has as its target T1, recombinant human BACE-1 (rhBACE-1) (Homo sapiens, UniProt P56817).
T1 construct: expressed as only an extracellular region (amino acid 1-460 residues) of recombinant human β-secretase; His tag (C); purchased R&D systems (Minneapolis, Minn.); host or cells: murine myeloma cell line NS0
As to the kind of experiment: BACE1 inhibitory activity, reverse phase HPLC quantitation of N-terminal fragment of fluorogenic substrate. In kind it is biochemical. As to conditions: 1 μL of inhibitor solution in DMSO (100 μM) in 50 μL reaction; MES buffer pH 5.0; 37° C., 60 minutes. From the text:
Experiment Regarding Measurement of BACE1 Inhibitory Activity
Enzyme Used in Measurement
As an enzyme having β-secretase activity, recombinant human BACE-1 (rhBACE-1) purchased from R&D systems (Minneapolis, Minn.) was used. rhBACE-1 is expressed as only an extracellular region (amino acid 1-460 residues) of recombinant human β-secretase, with a His tag at its carboxyl terminal in murine myeloma cell line, NS0. Purified secreted rhBACE1 is a mixture of a pro entity (about 75 kDa) and a mature entity (about 72 kDa).
Assessment of Enzyme Inhibitory Activity
Enzyme inhibitory activity of an inhibitor was assessed by quantitating an N-terminal fragment produced aftercleaving the substrate with BACE1 by reverse HPLC using (7-methoxycoumarin-4-yl)acetyl-[…]2,4-dinitrophenyl)-Arg-Arg-NH2 purchased from Peptide Institute (Osaka, Japan) as a substrate for BACE1. To 40 μL of 62.5 mM 2-(N-morpholino)ethansulfonic acid (MES)-CH3COOH—NaOH buffer (pH 5.0), were added 1 μL of a solution of an inhibitor diluted with DMSO (100 μM), 4 μL of rhBACE-1 (6.25 ng/μL), and 5 μL of an aqueous solution (50% DMSO) of 250 μM substrate (7-methoxycoumarin-4-yl)acetyl-[…]2,4-dinitrophenyl)-Arg-Arg-NH2 to initiate an enzyme reaction. After incubation at 37° C. for 60 minutes, 20 μL of 20% trichloroacetic acid was added to stop the reaction. And, inhibition % was calculated by measuring a fluorescent intensity of the N-terminal fragment (Ex, 328 nm; Em, 393 nm) using reverse phase HPLC (linear gradient of MeCN in aqueous TFA; flow rate, 1.0 mL/min).
BACE1 Inhibitory Activity
Enzyme inhibitory activity of an inhibitor was assessed by quantitating a N-terminal fragment produced after cleavage of a substrate with BACE1 by reverse phase HPLC using (7-methoxycoumarin-4-yl)acetyl-[…]2,4-dinitrophenyl)-Arg-Arg-NH2 purchased from Peptide Institute (Osaka, Japan) as a substrate for BACE1. Recombinant human BACE-1 purchased from R&D systems (Minneapolis, Minn.) was used. To 40 μL of 62.5 mM 2-(N-morpholino)ethansulfonic acid (MES)-CH3COOH—NaOH buffer (pH 5.0), were added 1 μL of a solution of an inhibitor diluted with DMSO (100 μM), 4 μL of BACE1 (6.25 ng/μL), and 5 μL of an aqueous solution (50% DMSO) of 250 μM substrate (7-methoxycoumarin-4-yl)acetyl-[…]2,4-dinitrophenyl)-Arg-Arg-NH2 to initiate an enzyme reaction. After incubation at 37° C. for 60 minutes, 20 μL of 20% trichloroacetic acid was added to stop a reaction. Inhibition % was calculated by measuring a fluorescent intensity of the N-terminal fragment (Ex, 328 nm; Em, 393 nm) using reverse phase HPLC (linear gradient of MeCN in aqueous TFA; flow rate, 1.0 mL/min).
`CC(C)C[C@H](NC(=O)[C@@H](NC(=O)[C@@H](N)CCC(=O)O)C(C)C)C(=O)N[C@@H](Cc1ccccc1)[C@@H](O)C(=O)N[C@@H](CC(=O)O)C(=O)N[C@@H](C)C(=O)Nc1cccc(C(=O)O)c1` [Example 92] (H-EVL[β3hPhe(2R-OH)]DA[3Abz]-OH): the inhibition – broadly, the drop in the measured response relative to a control, in per cent – at 2 µM turned out to be 65.4%.

Regarding `CC(C)C[C@H](NC(=O)[C@@H](NC(=O)[C@@H](N)CCC(=O)O)C(C)C)C(=O)N[C@@H](Cc1ccccc1)[C@@H](O)C(=O)N[C@@H](CC(=O)O)C(=O)N[C@@H](C)C(=O)Nc1ccc(C(=O)O)cc1` [Example 93] (H-EVL[β3hPhe(2R-OH)]DA[4Abz]-OH), the inhibition at 2 µM was determined as 64.8%. Still for that read-out and setting: as for `CCOC(=O)C(=O)NC[C@H](N)C(=O)N[C@H](C(=O)N[C@@H](CC(C)C)C(=O)N[C@@H](Cc1ccccc1)[C@@H](O)C(=O)N[C@@H](CC(=O)O)C(=O)N[C@@H](C)C(=O)N[C@@H](CCC(=O)O)C(=O)O)C(C)C` [Example 95] (H-[Dap](X4)VL[β3hPhe(2R-OH)]DAE-OH), the figure is 61.7%; as for `CC(C)C[C@H](NC(=O)[C@@H](NC(=O)[C@@H](N)CCC(=O)O)C(C)C)C(=O)N[C@@H](Cc1ccccc1)[C@@H](O)C(=O)N[C@H](C(=O)N[C@@H](C)C(=O)N[C@@H](CCC(=O)O)C(=O)N[C@@H](Cc1ccccc1)C(=O)O)C(C)C` [Example 96] (H-EVL[β3hPhe(2R-OH)]VAEF-OH), 59.2%; as for `CC(C)C[C@H](NC(=O)[C@@H](NC(=O)[C@@H](N)CCC(=O)O)C(C)C)C(=O)N[C@@H](CC(C)C)[C@@H](O)C(=O)N[C@@H](CC(=O)O)C(=O)N[C@@H](C)C(=O)N[C@@H](CCC(=O)O)C(=O)N[C@@H](Cc1ccccc1)C(=O)O` [Example 97] (H-EVL[X3]DAEF-OH), 59.1%.

On to `CC(C)C[C@H](NC(=O)[C@@H](NC(=O)[C@@H](N)CCC(=O)O)C(C)C)C(=O)N[C@@H](Cc1ccccc1)[C@@H](O)C(=O)N[C@@H](CC(=O)O)C(=O)N[C@@H](C)C(=O)N[C@@H](CC(=O)O)C(=O)O` [Example 98] (H-EVL[β3hPhe(2R-OH)]DAD-OH), for which the inhibition at 2 µM came to 58.4%.

On to `CC(C)[C@H](NC(=O)[C@@H](N)CCC(=O)O)C(=O)N[C@@H](Cc1cscn1)C(=O)N[C@@H](Cc1ccccc1)[C@@H](O)C(=O)N[C@@H](CC(=O)O)C(=O)N[C@@H](C)C(=O)N[C@@H](CCC(=O)O)C(=O)N[C@@H](Cc1ccccc1)C(=O)O` [Example 99] (H-EV[Ala(4-thiazolyl)][β3hPhe(2R-OH)]DAEF-OH), for which the inhibition at 2 µM was found to be 58%. Same read-out and setting: as for `CC(C)C[C@H](NC(=O)[C@@H](NC(=O)[C@@H](N)CCC(=O)O)C(C)C)C(=O)N[C@@H](Cc1ccccc1)[C@@H](O)C(=O)N[C@H](CC(=O)O)C(=O)O` [Example 100] (H-EVL[β3hPhe(2R-OH)][dD]-OH), the figure is 56.9%; as for `CC(C)C[C@H](NC(=O)[C@@H](NC(=O)[C@@H](N)CCCNC(=O)C(=O)O)C(C)C)C(=O)N[C@@H](Cc1ccccc1)[C@@H](O)C(=O)N[C@@H](CC(=O)O)C(=O)N[C@@H](C)C(=O)N[C@@H](CCC(=O)O)C(=O)O` [Example 101] (H-[Orn](Oxalyl)VL[β3hPhe(2R-OH)]DAE-OH), 56.1%; as for `CC(C)C[C@H](NC(=O)[C@@H](NC(=O)[C@@H](N)CCC(=O)O)C(C)C)C(=O)N[C@@H](Cc1ccccc1)[C@@H](O)C(=O)N[C@@H](CC(=O)O)C(=O)NCc1ccc(C(=O)O)cc1` [Example 103] (H-EVL[β3hPhe(2R-OH)]D[4Amb]-OH), 54.6%.

As for `CCOC(=O)C(=O)NC[C@H](N)C(=O)N[C@H](C(=O)N[C@@H](CC(C)C)C(=O)N[C@@H](Cc1ccccc1)[C@@H](O)C(=O)Nc1cc(C(=O)OC)cc(C(=O)OC)c1)C(C)C` [Example 104], the inhibition at 2 µM is 54.4%. For `CC(C)C[C@H](NC(=O)[C@@H](NC(=O)[C@@H](N)CCC(=O)O)C(C)C)C(=O)N[C@@H](Cc1ccccc1)[C@@H](O)C(=O)N1CSC(C)(C)[C@H]1C(=O)N[C@@H](C)C(=O)NC(CCC(=O)O)C(=O)N[C@@H](Cc1ccccc1)C(=O)O` (stereo partly drawn) [Example 106] (H-EVL[β3hPhe(2R-OH)][Thz(5,5-Me2)]A[ξE]F-OH), the inhibition at 2 µM was 53%. In the case of `CC(C)C[C@H](NC(=O)[C@@H](NC(=O)[C@@H](N)CCC(=O)O)C(C)C)C(=O)N[C@@H](Cc1ccccc1)[C@@H](O)C(=O)N[C@@H](CC(C)C)C(=O)N[C@@H](C)C(=O)N[C@@H](CCC(=O)O)C(=O)N[C@@H](Cc1ccccc1)C(=O)O` [Example 107] (H-EVL[β3hPhe(2R-OH)]LAEF-OH), the inhibition at 2 µM amounted to 52.1%. Still for that read-out and setting: with `CC(C)C[C@H](NC(=O)[C@@H](NC(=O)[C@@H](N)CCC(=O)O)C(C)C)C(=O)N[C@@H](Cc1ccccc1)[C@@H](O)C(=O)N[C@@H](CC(=O)O)C(=O)N[C@@H](C)C(=O)NCc1ccc(C(=O)O)cc1` [Example 108] (H-EVL[β3hPhe(2R-OH)]DA[4Amb]-OH) the figure was 51.3%; with `CC(C)[C@H](NC(=O)[C@@H](NC(=O)[C@@H](N)CCC(=O)O)C(C)C)C(=O)N[C@@H](Cc1ccccc1)[C@@H](O)C(=O)N[C@@H](CC(=O)O)C(=O)N[C@@H](C)C(=O)N[C@@H](CCC(=O)O)C(=O)N[C@@H](Cc1ccccc1)C(=O)O` [Example 123] (H-EVV[β3hPhe(2R-OH)]DAEF-OH), 61.4%. For the compound `CC(C)C[C@H](NC(=O)[C@@H](NC(=O)[C@@H](N)CNC(=O)c1nnn[nH]1)C(C)C)C(=O)N[C@@H](Cc1ccccc1)[C@@H](O)C(=O)Nc1cccc(C(N)=O)c1` [Example 124], the inhibition at 2 µM turned out to be 97.3%. Consider `CC(C)C[C@H](NC(=O)[C@@H](NC(=O)[C@@H](N)CNC(=O)C(=O)O)C(C)C)C(=O)N[C@@H](CC1CCCCC1)[C@@H](O)C(=O)Nc1cccc(C(=O)O)c1` [Example 126], for which the inhibition at 2 µM was determined as 98.9%. As for `CC(C)C[C@H](NC(=O)[C@@H](NC(=O)[C@@H](N)CNC(=O)c1nnn[nH]1)C(C)C)C(=O)N[C@@H](Cc1ccccc1)[C@@H](O)C(=O)Nc1cc(C(=O)O)cc(C(=O)O)c1` [Example 127], the inhibition at 2 µM was determined as 100%. `Cc1c(NC(=O)[C@H](O)[C@H](Cc2ccccc2)NC(=O)[C@H](CC(C)C)NC(=O)[C@@H](NC(=O)[C@@H](N)CCC(=O)O)C(C)C)cccc1C(=O)O` [Example 128]: the inhibition at 2 µM was determined as 53.6%. Still for that read-out and setting: with `COc1cc(NC(=O)[C@H](O)[C@H](Cc2ccccc2)NC(=O)[C@H](CC(C)C)NC(=O)[C@@H](NC(=O)[C@@H](N)CCC(=O)O)C(C)C)cc(OC)c1` [Example 129] the figure was 61%; with `CC(C)C[C@H](NC(=O)[C@@H](NC(=O)[C@@H](N)CCC(=O)O)C(C)C)C(=O)N[C@@H](Cc1ccccc1)[C@@H](O)C(=O)Nc1cccc(O)c1` [Example 130], 57.2%.

Consider `CSC[C@H](NC(=O)[C@@H](NC(=O)[C@@H](N)CCC(=O)O)C(C)C)C(=O)N[C@@H](Cc1ccccc1)[C@@H](O)C(=O)Nc1cccc(C(=O)O)c1` [Example 131], for which the inhibition at 2 µM was determined as 74.1%.

On to `CCSC[C@H](NC(=O)[C@@H](NC(=O)[C@@H](N)CCC(=O)O)C(C)C)C(=O)N[C@@H](Cc1ccccc1)[C@@H](O)C(=O)Nc1cccc(C(=O)O)c1` [Example 132], for which the inhibition at 2 µM was 68.1%. For the compound `CC(C)C[C@H](NC(=O)[C@@H](NC(=O)[C@@H](N)CNC(=O)c1ccc(O)c(O)c1)C(C)C)C(=O)N[C@@H](Cc1ccccc1)[C@@H](O)C(=O)N[C@@H](CC(=O)O)C(=O)N[C@@H](C)C(=O)N[C@@H](CCC(=O)O)C(=O)O` [Example 133] (H-[Dap](X1)VL[β3hPhe(2R-OH)]DAE-OH), the inhibition at 100 µM (stock) is 71.5%. Regarding `CC(C)[C@H](NC(=O)[C@@H](N)CNC(=O)C(=O)O)C(=O)N[C@@H](CC1CCCCC1)C(=O)N[C@@H](Cc1ccccc1)[C@@H](O)C(=O)Nc1cc(C(=O)O)cc(C(=O)O)c1` [Example 134], the inhibition at 2 µM worked out at 99.6%. For the compound `CC(C)[C@H](NC(=O)[C@@H](N)CNC(=O)c1nnn[nH]1)C(=O)N[C@@H](CC1CCCCC1)C(=O)N[C@@H](Cc1ccccc1)[C@@H](O)C(=O)Nc1cc(C(=O)O)cc(C(=O)O)c1` [Example 135], the inhibition at 2 µM was determined as 99.8%.
